Laboratory results reported in PubChem BioAssay AID182 (DTP/NCI, 2004).
Where “and” joins values, the source holds several entries; their conditions need not be identical. Equal entries are not always repeated. Inconclusive results and toxic doses are left out.

Tested on: BDF1 mice, P388/ADR leukemia ip, median survival T/C
Assay: NCI In Vivo Anticancer Drug Screen. Data for tumor model P388 Leukemia resistant to Adriamycin; NSC 123127, Developed at Scr 06 and 41 (intraperitoneal) in B6D2F1 (BDF1) mice
Conditions: endpoint: median survival time, higher = longer survival
Experimental: The antitumor activity of compounds was measured in mice bearing transplantable tumors. Survival or tumor size were measured and the results are expressed as the measurement made in the treated group (T) divided by the measurement made in the vehicle treated control group (C). The tumor model used in this assay is P388 Leukemia resistant to Adriamycin; NSC 123127, Developed at Scr 06 and 41 (intraperitoneal) in B6D2F1 (BDF1) mice

[1] = dose: 1.3 mg/kg/injection, schedule: Q04DX003 (ip), vehicle: water

SMILES: COC(=O)[C@@H]1c2cc3c(c(O)c2[C@@H](OC2OC(C)C(OC)C(C)(OC)C2OC)C[C@]1(C)O)C(=O)c1c(O)cc2c(c1C3=O)O[C@H]1O[C@]2(C)[C@H](O)[C@@H](N(C)C)[C@@H]1O (stereo partly drawn)
- T/C (dose: 0.65 mg/kg/injection, schedule: Q04DX003 (ip), vehicle: water): 89 % of control
- T/C (dose: 1.08 mg/kg/injection, schedule: Q04DX003 (ip), vehicle: water): 96 % of control
- T/C [1]: 103 % of control
- T/C (dose: 1.8 mg/kg/injection, schedule: Q04DX003 (ip), vehicle: water): 96 % of control
- T/C (dose: 2.16 mg/kg/injection, schedule: Q04DX003 (ip), vehicle: water): 91 % of control

SMILES: CCCCC(=O)OCC(=O)[C@]1(O)Cc2c(O)c3c(c(O)c2[C@@H](OC2CC(NC(=O)C(F)(F)F)C(O)C(C)O2)C1)C(=O)c1c(OC)cccc1C3=O (stereo partly drawn)
- T/C (dose: 13.0 mg/kg/injection, schedule: Q01DX004 (ip), vehicle: saline with Tween-80): 105 % of control
- T/C (dose: 15.1 mg/kg/injection, schedule: Q04DX003 (ip), vehicle: other): 120 % of control
- T/C (dose: 21.0 mg/kg/injection, schedule: Q01DX004 (ip), vehicle: saline with Tween-80): 113 % of control
- T/C (dose: 25.2 mg/kg/injection, schedule: Q04DX003 (ip), vehicle: other): 119 % of control
- T/C (dose: 42.0 mg/kg/injection, schedule: Q04DX003 (ip), vehicle: other): 122 % of control
- T/C (dose: 70.0 mg/kg/injection, schedule: Q04DX003 (ip), vehicle: other): 155 % of control

SMILES: CC1CC(C)(O)CC(C(O)CC2CC(=O)NC(=O)C2)C1=O (stereo not drawn)
- T/C (dose: 0.72 mg/kg/injection, schedule: Q04DX003 (ip), vehicle: saline): 120 % of control
- T/C (dose: 0.78 mg/kg/injection, schedule: Q04DX003 (ip), vehicle: saline): 124 % of control
- T/C (dose: 2.16 mg/kg/injection, schedule: Q04DX003 (ip), vehicle: saline): 91 % of control
- T/C (dose: 173.0 micrograms/kg/injection, schedule: Q01DX009 (ip), vehicle: saline): 103 % of control
- T/C (dose: 288.0 micrograms/kg/injection, schedule: Q01DX009 (ip), vehicle: saline): 112 % of control
- T/C (dose: 480.0 micrograms/kg/injection, schedule: Q01DX009 (ip), vehicle: saline): 92 % of control

SMILES: NC(CSC(c1ccccc1)(c1ccccc1)c1ccccc1)C(=O)O (stereo not drawn)
- T/C (dose: 24.0 mg/kg/injection, schedule: Q01DX009 (ip), vehicle: other): 100 % of control
- T/C (dose: 40.0 mg/kg/injection, schedule: Q01DX009 (ip), vehicle: other): 106 % of control

SMILES: CC[C@]1(O)C[C@H](OC2CC(N(C)C)C(OC3CC(O)C(O)C(C)O3)C(C)O2)c2c(cc3c(c2O)C(=O)c2c(O)ccc(O)c2C3=O)[C@H]1C(=O)OC (stereo partly drawn)
- T/C (dose: 3.46 mg/kg/injection, schedule: Q04DX003 (ip), vehicle: other): 106 % of control
- T/C (dose: 5.76 mg/kg/injection, schedule: Q04DX003 (ip), vehicle: other): 102 % of control
- T/C (dose: 9.6 mg/kg/injection, schedule: Q04DX003 (ip), vehicle: other): 93 % of control

SMILES: CCC1(O)CC(OC2CC(N(C)C)C(OC3CC4OC5CC(=O)C(C)OC5OC4C(C)O3)C(C)O2)c2c(cc3c(c2O)C(=O)c2c(O)ccc(O)c2C3=O)C1C(=O)OC (stereo not drawn)
- T/C (dose: 0.86 mg/kg/injection, schedule: Q04DX003 (ip), vehicle: water): 112 % of control
- T/C [1]: 115 % of control
- T/C (dose: 1.44 mg/kg/injection, schedule: Q04DX003 (ip), vehicle: water): 120 % of control
- T/C (dose: 2.4 mg/kg/injection, schedule: Q04DX003 (ip), vehicle: water): 124 % of control

SMILES: O=c1[nH]cc(F)c(=O)[nH]1
- T/C (dose: 21.6 mg/kg/injection, schedule: Q04DX003 (ip), vehicle: saline): 150 % of control
- T/C (dose: 36.0 mg/kg/injection, schedule: Q04DX003 (ip), vehicle: saline): 174 % of control
- T/C (dose: 60.0 mg/kg/injection, schedule: Q04DX003 (ip), vehicle: saline): 192 % of control

SMILES: CC[C@@]1(O)C[C@H](OC2CC(N(C)C)C(OC3CC(O)C(OC4CCC(=O)C(C)O4)C(C)O3)C(C)O2)c2c(cc3c(c2O)C(=O)c2c(O)ccc(O)c2C3=O)[C@H]1C(=O)OC (stereo partly drawn)
- T/C (dose: 0.65 mg/kg/injection, schedule: Q01DX009 (ip), vehicle: water): 110 % of control
- T/C (dose: 1.08 mg/kg/injection, schedule: Q01DX009 (ip), vehicle: water): 120 % of control
- T/C (dose: 1.73 mg/kg/injection, schedule: Q04DX003 (ip), vehicle: water): 115 % of control and 124 % of control
- T/C (dose: 2.5 mg/kg/injection, schedule: Q04DX003 (ip), vehicle: water): 116 % of control
- T/C (dose: 2.88 mg/kg/injection, schedule: Q04DX003 (ip), vehicle: water): 119 % of control
- T/C (dose: 3.0 mg/kg/injection, schedule: Q01DX009 (ip), vehicle: water): 90 % of control
- T/C (dose: 4.8 mg/kg/injection, schedule: Q04DX003 (ip), vehicle: other): 119 % of control
- T/C (dose: 4.8 mg/kg/injection, schedule: Q04DX003 (ip), vehicle: water): 150 % of control
- T/C (dose: 5.0 mg/kg/injection, schedule: Q04DX003 (ip), vehicle: water): 110 % of control
